The source of these data is patent US9540377B2, “2,6,7,8 substituted purines as HDM2 inhibitors” (Merck Sharp & Dohme Corp., priority 2013, dated 2017).

Chain of HDM2 (truncated, residues 17 to 125, containing p53 binding surface) (Q00987 17-125): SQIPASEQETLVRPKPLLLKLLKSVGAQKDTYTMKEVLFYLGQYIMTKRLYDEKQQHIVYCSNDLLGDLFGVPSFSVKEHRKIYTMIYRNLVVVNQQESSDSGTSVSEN

The first test addresses HDM2 (truncated, residues 17 to 125, containing p53 binding surface) (Homo sapiens (Human), UniProt Q00987). The test is described as follows: HDM2 FRET assay (inhibition of binding of FITC labeled p53-site peptide to HDM2). To be noted: Table 16. The text has this: IC50 DETERMINATIONS: Dose-response curves were plotted from the inhibition data, from 10 point serial dilutions of inhibitory compounds. Concentration of compound was plotted against em520/Cem495 ratio signal. To generate IC50 values, the dose-response curves were fitted to a standard sigmoidal curve and IC50 values were derived by nonlinear regression analysis.
In general, IC50 refers to the concentration that gives 50% inhibition. A low value points to inhibition by little substance. Compound `C[C@H]1CC[C@H](Cn2c(N3CCCC4COCCC43)nc3nc(-c4n[nH]c(=O)o4)nc(-c4cncc(Cl)c4)c32)CC1` (single isomer, unassigned) [Example 16.122, 5-{6-(5-chloropyridin-3-yl)-8-(hexahydro-2H-pyrano[4,3-b]pyridin-1(5H)-yl)-7-[(trans-4-methylcyclohexyl)methyl]-7H-purin-2-yl}-1,3,4-oxadiazol-2(3H)-one] displayed an IC50 of 203 nM.

Compound `C[C@H]1CC[C@H](Cn2c(N3CCCC4COCCC43)nc3nc(-c4n[nH]c(=O)o4)nc(-c4cncc(Cl)c4)c32)CC1` (single isomer, unassigned) [Example 16.123, 5-{6-(5-chloropyridin-3-yl)-8-(hexahydro-2H-pyrano[4,3-b]pyridin-1(5H)-yl)-7-[(trans-4-methylcyclohexyl)methyl]-7H-purin-2-yl}-1,3,4-oxadiazol-2(3H)-one] returned an IC50 of 59.1 nM.

`C[C@H]1CC[C@H](Cn2c(N3CCCC4COCCC43)nc3nc(-c4n[nH]c(=O)o4)nc(-c4cccc(Cl)c4)c32)CC1` (single isomer, unassigned) [Example 16.124, 5-{6-(3-chlorophenyl)-8-(hexahydro-2H-pyrano[4,3-b]pyridin-1(5H)-yl)-7-[(trans-4-methylcyclohexyl)methyl]-7H-purin-2-yl}-1,3,4-oxadiazol-2(3H)-one] registered an IC50 of 263 nM.

The compound `C[C@H]1CC[C@H](Cn2c(N3CCCC4COCCC43)nc3nc(-c4n[nH]c(=O)o4)nc(-c4cccc(Cl)c4)c32)CC1` (single isomer, unassigned) [Example 16.125, 5-{6-(3-chlorophenyl)-8-(hexahydro-2H-pyrano[4,3-b]pyridin-1(5H)-yl)-7-[(trans-4-methylcyclohexyl)methyl]-7H-purin-2-yl}-1,3,4-oxadiazol-2(3H)-one] yielded an IC50 of 56.7 nM.

The same test, now with this note: Table 18.
As for `CC([C@H]1CC[C@H](C)CC1)n1c(N2CCOC3CCCC32)nc2nc(-c3noc(=O)[nH]3)nc(-c3cccc(Cl)c3)c21` (single isomer, unassigned) [Example 18.37, 3-{6-(3-chlorophenyl)-8-(hexahydrocyclopenta[b][1,4]oxazin-4(4aH)-yl)-7-[1-(trans-4-methylcyclohexyl)ethyl]-7H-purin-2-yl}-1,2,4-oxadiazol-5(4H)-one], the IC50 came to 2.21 nM.

For `CC([C@H]1CC[C@H](C)CC1)n1c(N2CCOC3CCCC32)nc2nc(-c3n[nH]c(=O)o3)nc(-c3cccc(Cl)c3)c21` (single isomer, unassigned) [Example 18.39, 5-{6-(3-chlorophenyl)-8-(hexahydrocyclopenta[b][1,4]oxazin-4(4aH)-yl)-7-[1-(trans-4-methylcyclohexyl)ethyl]-7H-purin-2-yl}-1,3,4-oxadiazol-2(3H)-one], the IC50 amounted to 3.73 nM.

Regarding `CC([C@H]1CC[C@H](C)CC1)n1c(N2CCOC3CCCC32)nc2nc(-c3noc(=O)[nH]3)nc(-c3cccc(Cl)c3)c21` (single isomer, unassigned) [Example 18.40, 3-{6-(3-chlorophenyl)-8-(hexahydrocyclopenta[b][1,4]oxazin-4(4aH)-yl)-7-[1-(trans-4-methylcyclohexyl)ethyl]-7H-purin-2-yl}-1,2,4-oxadiazol-5(4H)-one], the IC50 stood at 7.86 nM.

With `CC([C@H]1CC[C@H](C)CC1)n1c(N2CCOC3CCCC32)nc2nc(-c3n[nH]c(=O)o3)nc(-c3cccc(Cl)c3)c21` (single isomer, unassigned) [Example 18.43, 5-{6-(3-chlorophenyl)-8-(hexahydrocyclopenta[b][1,4]oxazin-4(4aH)-yl)-7-[1-(trans-4-methylcyclohexyl)ethyl]-7H-purin-2-yl}-1,3,4-oxadiazol-2(3H)-one], the IC50 worked out at 14 nM.

For `CC([C@H]1CC[C@H](C)CC1)n1c(N2CCOC3CCCC32)nc2nc(-c3noc(=O)[nH]3)nc(-c3cncc(Cl)c3)c21` (single isomer, unassigned) [Example 18.52, 3-{6-(5-chloropyridin-3-yl)-8-(hexahydrocyclopenta[b][1,4]oxazin-4(4aH)-yl)-7-[1-(trans-4-methylcyclohexyl)ethyl]-7H-purin-2-yl}-1,2,4-oxadiazol-5(4H)-one], the IC50 was 5.44 nM.

`CC([C@H]1CC[C@H](C)CC1)n1c(N2CCOC3CCCC32)nc2nc(-c3noc(=O)[nH]3)nc(-c3cncc(Cl)c3)c21` (single isomer, unassigned) [Example 18.53, 3-{6-(5-chloropyridin-3-yl)-8-(hexahydrocyclopenta[b][1,4]oxazin-4(4aH)-yl)-7-[1-(trans-4-methylcyclohexyl)ethyl]-7H-purin-2-yl}-1,2,4-oxadiazol-5(4H)-one] registered an IC50 of 7.36 nM.

The same test, now with this note: Table 23.
Turning to `COc1ccccc1C(C)(F)c1nc2nc(-c3noc(=O)[nH]3)nc(-c3cncc(Cl)c3)c2n1C[C@H]1CC[C@H](C)CC1` (single isomer, unassigned) [Example 23.26, 3-{6-(5-chloropyridin-3-yl)-8-[1-fluoro-1-(2-methoxyphenyl)ethyl]-7-[(trans-4-methylcyclohexyl)methyl]-7H-purin-2-yl}-1,2,4-oxadiazol-5(4H)-one], the IC50 stood at 5.37 nM.

`COc1ccccc1C(C)(F)c1nc2nc(-c3noc(=O)[nH]3)nc(-c3cncc(Cl)c3)c2n1C[C@H]1CC[C@H](C)CC1` (single isomer, unassigned) [Example 23.27, 3-{6-(5-chloropyridin-3-yl)-8-[1-fluoro-1-(2-methoxyphenyl)ethyl]-7-[(trans-4-methylcyclohexyl)methyl]-7H-purin-2-yl}-1,2,4-oxadiazol-5(4H)-one] gave an IC50 of 1.62 nM.

On to `CC(F)(c1ccccn1)c1nc2nc(-c3noc(=O)[nH]3)nc(-c3cccc(Cl)c3)c2n1C[C@H]1CC[C@H](C)CC1` (single isomer, unassigned) [Example 23.30, 3-{6-(3-chlorophenyl)-8-(1-fluoro-1-pyridin-2-ylethyl)-7-[(trans-4-methylcyclohexyl)methyl]-7H-purin-2-yl}-1,2,4-oxadiazol-5(4H)-one], for which the IC50 came to 6.7 nM.

Compound `CC(F)(c1ccccn1)c1nc2nc(-c3noc(=O)[nH]3)nc(-c3cccc(Cl)c3)c2n1C[C@H]1CC[C@H](C)CC1` (single isomer, unassigned) [Example 23.31, 3-{6-(3-chlorophenyl)-8-(1-fluoro-1-pyridin-2-ylethyl)-7-[(trans-4-methylcyclohexyl)methyl]-7H-purin-2-yl}-1,2,4-oxadiazol-5(4H)-one] displayed an IC50 of 3.73 nM.

`CC(F)(c1ccccc1F)c1nc2nc(-c3n[nH]c(=O)o3)nc(-c3cncc(Cl)c3)c2n1C[C@H]1CC[C@H](C)CC1` (single isomer, unassigned) [Example 23.32, 5-{6-(5-chloropyridin-3-yl)-8-[1-fluoro-1-(2-fluorophenyl)ethyl]-7-[(trans-4-methylcyclohexyl)methyl]-7H-purin-2-yl}-1,3,4-oxadiazol-2(3H)-one] had an IC50 of 16 nM.

The compound `CC(F)(c1ccccc1F)c1nc2nc(-c3n[nH]c(=O)o3)nc(-c3cncc(Cl)c3)c2n1C[C@H]1CC[C@H](C)CC1` (single isomer, unassigned) [Example 23.33, 5-{6-(5-chloropyridin-3-yl)-8-[1-fluoro-1-(2-fluorophenyl)ethyl]-7-[{trans-4-methylcyclohexyl)methyl]-7H-purin-2-yl}-1,3,4-oxadiazol-2(3H)-one] gave an IC50 of 0.453 nM.

For `CC(F)(c1ccccc1F)c1nc2nc(-c3noc(=O)[nH]3)nc(-c3cncc(Cl)c3)c2n1C[C@H]1CC[C@H](C)CC1` (single isomer, unassigned) [Example 23.34, 3-{6-(5-chloropyridin-3-yl)-8-[1-fluoro-1-(2-fluorophenyl)ethyl]-7-[(trans-4-methylcyclohexyl)methyl]-7H-purin-2-yl}-1,2,4-oxadiazol-5(4H)-one], the IC50 worked out at 9.3 nM.

Regarding `CC(F)(c1ccccc1F)c1nc2nc(-c3noc(=O)[nH]3)nc(-c3cncc(Cl)c3)c2n1C[C@H]1CC[C@H](C)CC1` (single isomer, unassigned) [Example 23.35, 3-{6-(5-chloropyridin-3-yl)-8-[1-fluoro-1-(2-fluorophenyl)ethyl]-7-[(trans-4-methylcyclohexyl)methyl] 7H-purin-2-yl}-1,2,4-oxadiazol-5(4H)-one], the IC50 stood at 0.424 nM.

For `CC(F)(c1ccccn1)c1nc2nc(-c3n[nH]c(=O)o3)nc(-c3cccc(Cl)c3)c2n1C[C@H]1CC[C@H](C)CC1` (single isomer, unassigned) [Example 23.36, 5-{6-(3-chlorophenyl)-8-[1-fluoro-1-(pyridin-2-yl)ethyl]-7-[(trans-4-methylcyclohexyl)methyl]-7H-purin-2-yl}-1,3,4-oxadiazol-2(3H)-one], the IC50 came out at 9.68 nM.

`CC(F)(c1ccccn1)c1nc2nc(-c3n[nH]c(=O)o3)nc(-c3cccc(Cl)c3)c2n1C[C@H]1CC[C@H](C)CC1` (single isomer, unassigned) [Example 23.37, 5-{6-(3-chlorophenyl)-8-[1-fluoro-1-(pyridin-2-yl)ethyl]-7-[{trans-4-methylcyclohexyl)methyl]-7H-purin-2-yl}-1,3,4-oxadiazol-2(3H)-one] yielded an IC50 of 9.65 nM.

`COC(C)(c1ccccc1F)c1nc2nc(-c3noc(=O)[nH]3)nc(-c3cncc(Cl)c3)c2n1C[C@H]1CC[C@H](C)CC1` (single isomer, unassigned) [Example 23.50, 3-{6-(5-chloropyridin-3-yl)-8-[1-(2-fluorophenyl)-1-methoxyethyl]-7-[(trans-4-methylcyclohexyl)methyl]-7H-purin-2-yl}-1,2,4-oxadiazol-5(4H)-one]: the IC50 came to 6.55 nM.

In turn, `COC(C)(c1ccccn1)c1nc2nc(-c3n[nH]c(=O)o3)nc(-c3cccc(Cl)c3)c2n1C[C@H]1CC[C@H](C)CC1` (single isomer, unassigned) [Example 23.54, 5-{6-(3-chlorophenyl)-8-(1-methoxy-1-pyridin-2-ylethyl)-7-[(trans-4-methylcyclohexyl)methyl]-7H-purin-2-yl}-1,3,4-oxadiazol-2(3H)-one] had an IC50 of 13.6 nM.
